The text below walks through data of PMC8942522 (Journal of Enzyme Inhibition and Medicinal Chemistry, 2022).

Where “and” joins values, the source holds several entries; their conditions need not be identical. Equal entries are not always repeated. Where two headings read alike, the source gives them in different places.

Series [1] deals with intracellular amastigotes of T. cruzi. Put plainly: Intracellular T. cruzi in U-2 OS cells. As to conditions: for selectivity index [SI vs. THP-1], T. cruzi: CC50 THP-1 / EC50 T. cruzi; for selectivity index [SI vs. U-2 OS], T. cruzi: CC50 U-2 OS / EC50 T. cruzi; for EC50: read-out: Cytotoxicity EC50 T. cruzi, intracellular amastigotes in U-2 OS, 72 h. It is filed as cell-based, T. cruzi (strain Y).

For series [2], the system named is intracellular amastigotes of L. donovani. Put plainly: Intracellular L. donovani in THP-1 cells. The conditions noted are these: for selectivity index [SI vs. THP-1], L. donovani: CC50 THP-1 / EC50 L. donovani.
Series [3] deals with T1, TcTryS (Trypanosoma cruzi, UniProt Q9GT49).
T1 sequence (Q9GT49 1-647): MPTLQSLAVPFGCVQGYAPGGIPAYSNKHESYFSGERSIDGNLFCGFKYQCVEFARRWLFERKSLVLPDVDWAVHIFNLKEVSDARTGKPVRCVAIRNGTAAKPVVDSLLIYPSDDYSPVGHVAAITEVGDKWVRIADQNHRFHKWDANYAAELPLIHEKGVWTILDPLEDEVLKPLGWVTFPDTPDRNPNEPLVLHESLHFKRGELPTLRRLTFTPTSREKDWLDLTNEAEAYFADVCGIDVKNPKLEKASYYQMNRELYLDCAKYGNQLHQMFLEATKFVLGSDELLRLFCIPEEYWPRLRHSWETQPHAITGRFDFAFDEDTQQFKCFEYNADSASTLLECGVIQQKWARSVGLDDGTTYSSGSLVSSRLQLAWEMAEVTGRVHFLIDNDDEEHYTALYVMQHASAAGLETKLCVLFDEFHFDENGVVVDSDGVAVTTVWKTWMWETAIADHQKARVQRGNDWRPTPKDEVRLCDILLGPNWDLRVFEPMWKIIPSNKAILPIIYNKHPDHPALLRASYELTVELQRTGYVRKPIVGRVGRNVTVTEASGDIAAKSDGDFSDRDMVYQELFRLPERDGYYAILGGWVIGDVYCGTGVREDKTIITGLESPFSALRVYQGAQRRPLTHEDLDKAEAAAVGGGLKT
The experiment in a line: TryS inhibition assay. It is filed as biochemical. The conditions noted are these: for % TryS inhibition at 25 μM, T. cruzi: mean ± SD, NA = not active (inhibition ≤ 0.0 ± 5.0%); for IC50: IC50 T. cruzi TryS, 1 h pre-incubation, DRC, values italic and bold in Table 1.

Series [4] deals with TbTryS. It is filed as biochemical, Trypanosoma brucei. The conditions noted are these: 1 h, n = 8; for TryS inhibition ± SD, mass spectrometry sample B: IAM 15 mM, no Ebselen.
Series [5] relates to bloodstream T. brucei. The experiment in a line: Cytotoxicity against bloodstream T. brucei. It is filed as cell-based, T. brucei (strain 427, cell line 449). As to conditions: CC50 THP-1 / EC50 T. brucei.
Series [6] deals with TbTryS. The experiment in a line: Dilution and reduction-based. It is filed as biochemical, Trypanosoma brucei. The conditions noted are these: Ebselen 10 µM 1 h, n = 6.
Series [7] has as its system redox biosensor hGrx1-roGFP2 in bloodstream T. b. brucei. The experiment in a line: Redox assay with hGrx1-roGFP2 reporter cell line. It is filed as cell-based, T. brucei brucei (strain 427, cell line 449).
Series [8] concerns TbTryS. Put plainly: Time-dependent inhibition assay. As to conditions: n = 6. It is filed as biochemical, Trypanosoma brucei.
Series [9] concerns the target T2, LiTryS (Leishmania infantum, UniProt A4I2Z3).
T2 sequence (A4I2Z3 1-652): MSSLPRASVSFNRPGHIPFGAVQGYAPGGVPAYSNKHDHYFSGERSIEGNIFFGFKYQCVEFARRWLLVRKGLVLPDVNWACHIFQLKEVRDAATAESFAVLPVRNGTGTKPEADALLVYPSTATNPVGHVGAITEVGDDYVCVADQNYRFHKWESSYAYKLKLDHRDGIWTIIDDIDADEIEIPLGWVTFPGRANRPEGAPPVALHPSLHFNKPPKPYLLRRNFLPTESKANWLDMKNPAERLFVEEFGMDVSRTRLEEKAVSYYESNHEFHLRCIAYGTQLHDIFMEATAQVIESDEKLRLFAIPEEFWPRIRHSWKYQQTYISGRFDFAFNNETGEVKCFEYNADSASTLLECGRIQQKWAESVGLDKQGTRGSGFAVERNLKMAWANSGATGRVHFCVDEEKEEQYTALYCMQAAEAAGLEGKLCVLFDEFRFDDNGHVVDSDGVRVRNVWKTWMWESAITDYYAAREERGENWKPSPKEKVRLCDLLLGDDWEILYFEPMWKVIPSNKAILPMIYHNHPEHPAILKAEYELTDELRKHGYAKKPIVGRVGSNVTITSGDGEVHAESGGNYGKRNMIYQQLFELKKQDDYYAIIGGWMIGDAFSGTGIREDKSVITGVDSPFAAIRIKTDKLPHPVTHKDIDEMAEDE
The experiment in a line: TryS inhibition assay. It is filed as biochemical. As to conditions: mean ± SD, NA = not active (inhibition ≤ 0.0 ± 5.0%).

Series [10] concerns the target T3, TryS from Trypanosoma brucei (TbTryS) (Trypanosoma brucei brucei, UniProt Q586P2).
T3 sequence (Q586P2 1-627): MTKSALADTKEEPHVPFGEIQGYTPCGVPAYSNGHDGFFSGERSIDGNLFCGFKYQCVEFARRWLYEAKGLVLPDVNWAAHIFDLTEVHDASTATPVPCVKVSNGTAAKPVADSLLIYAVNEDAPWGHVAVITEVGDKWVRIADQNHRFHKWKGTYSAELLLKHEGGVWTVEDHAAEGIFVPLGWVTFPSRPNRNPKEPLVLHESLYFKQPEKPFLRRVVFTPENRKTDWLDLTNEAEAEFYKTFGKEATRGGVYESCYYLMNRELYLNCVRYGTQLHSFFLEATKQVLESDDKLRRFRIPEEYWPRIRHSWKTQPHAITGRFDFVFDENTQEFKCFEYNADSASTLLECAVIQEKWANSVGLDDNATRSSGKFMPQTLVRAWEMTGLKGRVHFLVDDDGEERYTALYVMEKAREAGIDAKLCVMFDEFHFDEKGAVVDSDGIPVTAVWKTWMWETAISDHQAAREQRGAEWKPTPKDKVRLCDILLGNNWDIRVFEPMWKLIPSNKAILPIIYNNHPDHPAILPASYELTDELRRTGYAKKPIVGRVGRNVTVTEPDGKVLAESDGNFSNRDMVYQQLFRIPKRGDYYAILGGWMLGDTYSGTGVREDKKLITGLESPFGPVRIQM
Put plainly: TryS inhibition assay. It is filed as biochemical. The conditions noted are these: mean ± SD, NA = not active (inhibition ≤ 0.0 ± 5.0%).

For the compound `NC(Cc1cc(O)c(O)cc1O)C(=O)O` (racemic) [Compound 3, 6-Hydroxy-DL-DOPA], in [1], the “selectivity index [SI vs. THP-1], T. cruzi” value is on record as more than 2.7; the “selectivity index [SI vs. U-2 OS], T. cruzi” value amounted to 2.7; the EC50 (in general, the concentration giving half of the maximal effect) was 34 µM and ~34 µM.

On to `C[C@@H]1[C@H](O)[C@@H](C)/C=C/C=C/C=C/C=C/C=C/C=C/C=C/[C@H](O[C@@H]2O[C@H](C)[C@@H](O)[C@H](N)[C@@H]2O)C[C@@H]2O[C@](O)(C[C@@H](O)C[C@@H](O)[C@H](O)CC[C@@H](O)C[C@@H](O)CC(=O)O[C@H]1C)C[C@H](O)[C@H]2C(=O)O` [Amphotericin B], for which the “selectivity index [SI vs. THP-1], L. donovani” value (“selectivity index … L. donovani” below) in series [2] was more than 22.

As for `O=C(Cn1ccnc1[N+](=O)[O-])NCc1ccccc1` [Benznidazole], the EC100 in series [1] (reference drug concentration used in T. cruzi assay) is on record as 400 µM.

As to `O=C(O)C1=CC(=C(c2ccc(O)c(C(=O)O)c2)c2ccc(O)c(C(=O)O)c2)C=CC1=O` [Compound 1, Aurintricarboxylic acid], the inhibition (commonly the relative decrease from the control value, in per cent) at 25 µM in series [3] (read-out: % TryS inhibition at 25 μM, T. cruzi) stood at 5.5 ± 2.8%.

As for `O=C(O)c1cc[c]([Hg][Cl])cc1` [Compound 2, 4-Chloromercuribenzoic acid], the “% TryS inhibition at 25 μM, T. cruzi” value in series [3] worked out at 32.0 ± 9.7%.

On to `O=c1c2ccccc2[se]n1-c1ccccc1` [Compound 5, Ebselen], for which the “TryS inhibition ± SD, mass spectrometry sample A” value in [4] (Ebselen 20 µM) is 100 ± 7%. Moreover, the “TryS inhibition ± SD, mass spectrometry sample A (value in parenthesis)” value in series [4] (Ebselen 50 µM) came out at 96 ± 8%. Further, in [2] (Leishmania donovani, THP-1, 96 h, read-out: Cytotoxicity EC50 L. donovani), the EC50 was more than 100 µM. Further, in series [1], the “selectivity index [SI vs. THP-1], T. cruzi” value is reported as more than 36; the “selectivity index [SI vs. U-2 OS], T. cruzi” value worked out at 2.4; the EC50 was found to be 2.8 ± 0.1 µM. Also, in series [3], half-maximal inhibition (IC50) required 13.8 ± 1.5 µM. The “selectivity index [SI vs. THP-1], T. brucei” value (“selectivity index … T. brucei” below) in series [5] is 11. Further, the “TryS inhibition ± SD, irreversible inhibition assay, sample A” value in series [6] (buffer exchanged, DTT 5 mM 30 min) is 89 ± 8.5%. Further, the “TryS inhibition ± SD, irreversible inhibition assay, sample B” value in [6] (buffer exchanged, no DTT) stood at 97.0 ± 5.0%. Moreover, in series [6] (no buffer exchange, no DTT), the “TryS inhibition ± SD, irreversible inhibition assay, sample C” value is recorded as 100 ± 9%. Moreover, the “oxidation of the biosensor” value in series [7] (18 µM (2-fold its EC50), 4 h, reverted by DTT 1 mM 20 min) was 48%. In addition, in [8] (Ebselen 5 µM pre-incubated 1 h with TbTryS, reaction started with MM), the “TryS inhibition ± SD, time-dependent assay, sample A” value is recorded as 43.6 ± 4.5%. For the same compound, in series [8] (Ebselen 5 µM, no pre-incubation), the “TryS inhibition ± SD, time-dependent assay, sample C” value worked out at 1.8 ± 4.2%.

For the compound `C[n+]1cc2c3c(ccc2c2ccc4cc5c(cc4c21)OCO5)OCO3` [Compound 6, Sanguinarine chloride], the “selectivity index … L. donovani” value in series [2] is listed as 2. In series [1], the “selectivity index [SI vs. THP-1], T. cruzi” value amounted to 9.5; the “selectivity index [SI vs. U-2 OS], T. cruzi” value was 1.3; the EC50 came to 0.37 ± 0.11 µM. In addition, the half-maximal inhibitory concentration (IC50) – broadly, the concentration that gives 50% inhibition – in series [3] turned out to be 40 ± 1.2 µM.

As for `Clc1ccc(C(c2ccc(Cl)cc2)n2cc[n+](CC(OCc3ccc(Cl)cc3Cl)c3ccc(Cl)cc3Cl)c2)cc1` (stereo not shown) [Compound 7, Calmidazolium chloride], in series [1], the “selectivity index [SI vs. U-2 OS], T. cruzi” value is reported as 1.1 and the EC50 was found to be 1.6 ± 0.1 µM. The IC50 in series [3] was 2.7 ± 0.5 µM. For the same compound, in [7] (2× EC50, 4 h), the “effect on parasites at 2× EC50 in redox assay” value is “massive cell death”.

As for `N=C1Sc2ccccc2C2=NCCCN12` [Compound 9, PD 404,182], the “% TryS inhibition at 25 μM, T. cruzi” value in [3] was determined as 10.9 ± 5.6%. Moreover, the “% TryS inhibition at 25 μM, L. infantum” value in [9] was found to be 8.9 ± 5.9%.

Regarding `Cl.Nc1nc(NCC2CCC(CNS(=O)(=O)c3cccc4ccccc34)CC2)nc2ccccc12` (stereo not shown) [Compound 11, CGP 71683 hydrochloride], in series [2], the “selectivity index … L. donovani” value worked out at 1.1. Besides, the “% TryS inhibition at 25 μM, T. cruzi” value in [3] amounted to 34.7 ± 7.6%. For the same compound, in series [10], the “% TryS inhibition at 25 μM, T. brucei” value was found to be 14.4 ± 8.2%.

`CCCC[P+](CCCC)(CCCC)Cc1ccc(NC(=O)[C@H](Cc2ccc3ccccc3c2)NC(=NC2CCCCC2)NC2CCCCC2)cc1.Cl.[Cl-]` [Compound 13, WIN 64338 hydrochloride]: in [2], the “selectivity index … L. donovani” value came to 1.9. Further, in series [3], the “% TryS inhibition at 25 μM, T. cruzi” value is reported as 25.9 ± 6.5%. The “% TryS inhibition at 25 μM, T. brucei” value in series [10] is 9.2 ± 7.4%. Also, the “% TryS inhibition at 25 μM, L. infantum” value in series [9] was 70.9 ± 6.8%.

On to `O=C(CCc1c(-c2ccc(F)cc2)[nH]c2ccc(F)cc12)N1CCN(c2ccncc2)CC1` [Compound 14], for which, in [3], the “% TryS inhibition at 25 μM, T. cruzi” value was found to be 7.1 ± 4.0%. Besides, the “selectivity index … T. brucei” value in series [5] was found to be 11. In addition, in series [9], the “% TryS inhibition at 25 μM, L. infantum” value amounted to 16.8 ± 17.9%.

In the case of `Cc1nc(C(=O)N2CCCC2c2ccc(F)c(F)c2)c(=O)[nH]c1C` (stereo not shown) [Compound 18], the “% TryS inhibition at 25 μM, L. infantum” value in [9] is on record as 28.5 ± 11.1%.

Turning to `CCN(CC)C(=O)COC(=O)c1c(NC(C)=O)sc2c1CCCC2` [Compound 19], the “% TryS inhibition at 25 μM, T. cruzi” value in [3] came to 13.3 ± 3.3%. For the same compound, in series [5], the “selectivity index … T. brucei” value is more than 4.

Take `O=C1Cc2cc(-c3csc(NCCc4cccs4)n3)cc3c2N1CCC3` [Compound 22]: in [3], the “% TryS inhibition at 25 μM, T. cruzi” value is given as 12.9 ± 6.1%. Further, the “% TryS inhibition at 25 μM, L. infantum” value in [9] (listed as 46, 25 µM) is reported as 74%.

Regarding `NC(=O)CI` [IAM, iodoacetamide], the “TryS inhibition ± SD, mass spectrometry sample B” value in [4] is given as 20 ± 9%; in [4] (listed as iodoacetamide), “negligible effects on TryS activity”.
